Measured values reported in PubChem BioAssay AID1918995 (Molecular Pharmacology Branch, DTP, NCI, 2023).

System: 324938-238-R-J1-PDC complex spheroid growth, % test/control
Test: Anticancer human tumor 324938-238-R-J1-PDC patient-derived bladder carcinoma cell line growth inhibition [AhR]
Details: for IC50: curve of first compound; for viability, T/C: stronger effect = lower value
Description: Multicellular complex tumor spheroid response to aryl hydrocarbon receptor antagonists in combination with a variety of drugs and investigational agents in selected tumor cell lines
The current study was undertaken to assess response to aryl hydrocarbon receptor antagonists in combination with standard-of-care drugs and investigational agents in solid tumor complex spheroid models. Complex spheroids include a stromal component modeled by human endothelial cells (HUVEC) and fibroblasts modeled by human mesenchymal stem cells (MSCs). The concentration ranges selected for each drug and investigational agent were based upon clinically achievable concentrations if the clinical Cmax of the agent was known.
Compounds. The drugs and investigational agents: BAY 2416964 (NSC825713), GNF351 (NSC835774), CH-223191 (NSC835775), CPI-455 (NSC825282), aza-TdCyd (NSC777586), decitabine (NSC127716), belinostat (NSC758774), entinostat (NSC756642), pevonedistat (NSC761192), tazemetostat (NSC777109), talazoparib (NSC765396), olaparib (NSC753686), selinexor (NSC780203), nedisertib (M3814, NSC802822), bortezomib (NSC756655), venetoclax (NSC766270), doxorubicin (NSC123127), elimusertib (BAY189344, NSC800525), ceralasertib (AZD6738, NSC777638), TAK-243 (NSC785004), alisertib (NSC759677), etoposide (NSC141540), topotecan (NSC609699), eribulin (NSC707389), gemcitabine (NSC613327), carboplatin (NSC241240), cisplatin (NSC119875), and SN-38 (NSC673596) were obtained from the National Cancer Institute (NCI) Developmental Therapeutics Program Chemical Repository (32). The FDA-approved anticancer drug set is available from the Developmental Therapeutics Program at https://dtp.cancer.gov/organization/dscb/obtaining/available plates.htm. […] The stock solutions were prepared in dimethyl sulfoxide (DMSO, Sigma-Aldrich, St. Louis, MO, cat. D2650), except for the platinum compounds which were prepared in saline (Quality Biological, Gaithersburg, MD, cat. 114-055-101), at 800-fold the tested concentration and stored at -70 degrees C prior to their use. All drugs and investigational agents were tested over a range starting from a high concentration at or near the clinical Cmax and decreasing in half-log increments. If the clinical Cmax for an agent had not been determined, the highest concentration tested was 10 microM (Table 1).
Cell Culture. All cells were maintained in an incubator at 37 degrees C and 5% CO2 with 95% humidity. The PDC lines were cultured according to standard operating procedures established by the NCI PDMR (https://pdmr.cancer.gov). Briefly, all PDCs were thawed and cultured in Matrigel-coated flasks prepared with a working solution of 1X Ham's F-12 nutrient mix, without supplementation (Invitrogen, Waltham, MA, cat. 11765054), 100 U/mL penicillin-streptomycin (Invitrogen, cat. 15140122), and 2.5% Matrigel (Corning Inc., Corning, NY, cat. 354248) for the first three passages. All PDCs were cultured in complete DMEM/F-12 media containing advanced DMEM/F-12 (Invitrogen, cat. 12634028), 4.9% defined fetal bovine serum, heat inactivated (HyClone Laboratories Inc., Logan, UT, cat. SH30070.03HI), 389 ng/mL hydrocortisone (Sigma-Aldrich, cat. H4001), 9.7 ng/mL human EGF recombinant protein (Invitrogen, cat. PHG0313), 23.4 microg/mL adenine (Sigma-Aldrich, cat. A2786), 97.3 U/mL penicillin-streptomycin (Invitrogen, cat. 15140122), 1.9 mM L-glutamine (Invitrogen, cat. 25030081), and 9.7 microM Y-27632 dihydrochloride (Tocris Bioscience, Bristol, United Kingdom, cat. 1254). The PDCs were cultured in complete DMEM/F12 media without 10 microM Y-27632 dihydrochloride for at least two passages prior to the screen. The established cell lines NCI-H1341 and […] were cultured in DMEM/F-12, HEPES (Invitrogen, cat. 11330032), 5% defined fetal bovine serum (HyClone Laboratories Inc., cat. SH30070.03), ITS premix universal culture supplement [insulin (5 microg/mL), transferrin (5 microg/mL), and selenious acid (5 ng/mL)] […]

[1] = second compound 0.1 µM, first compound 0.0316 µM
[2] = second compound 0.1 µM, first compound 0.1 µM
[3] = second compound 0.1 µM, first compound 0.316 µM
[4] = second compound 0.1 µM, first compound 1 µM
[5] = second compound 0.1 µM, first compound 3.16 µM
[6] = second compound 0.1 µM, first compound 10 µM
[7] = second compound 0.316 µM, first compound 0.0316 µM
[8] = second compound 0.316 µM, first compound 0.1 µM
[9] = second compound 0.316 µM, first compound 0.316 µM
[10] = second compound 0.316 µM, first compound 1 µM
[11] = second compound 0.316 µM, first compound 3.16 µM
[12] = second compound 0.316 µM, first compound 10 µM
[13] = second compound 1 µM, first compound 0.0316 µM
[14] = second compound 1 µM, first compound 0.1 µM
[15] = second compound 1 µM, first compound 0.316 µM
[16] = second compound 1 µM, first compound 1 µM
[17] = second compound 1 µM, first compound 3.16 µM
[18] = second compound 1 µM, first compound 10 µM
[19] = second compound 3.16 µM, first compound 0.0316 µM
[20] = second compound 3.16 µM, first compound 0.1 µM
[21] = second compound 3.16 µM, first compound 0.316 µM
[22] = second compound 3.16 µM, first compound 1 µM
[23] = second compound 3.16 µM, first compound 3.16 µM
[24] = second compound 3.16 µM, first compound 10 µM
[25] = second compound 10 µM, first compound 0.0316 µM
[26] = second compound 10 µM, first compound 0.1 µM
[27] = second compound 10 µM, first compound 0.316 µM
[28] = second compound 10 µM, first compound 1 µM
[29] = second compound 10 µM, first compound 3.16 µM
[30] = second compound 10 µM, first compound 10 µM
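Also: spheroids exposed to agents for seven days before viability read.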

SMILES | IC50 (second compound 0.1 µM) [µM] | IC50 (second compound 0.316 µM) [µM] | IC50 (second compound 1 µM) [µM] | IC50 (second compound 3.16 µM) [µM] | IC50 (second compound 10 µM) [µM] | viability, T/C [1] [%] | viability, T/C [2] [%] | viability, T/C [3] [%] | viability, T/C [4] [%] | viability, T/C [5] [%] | viability, T/C [6] [%] | viability, T/C [7] [%] | viability, T/C [8] [%] | viability, T/C [9] [%] | viability, T/C [10] [%] | viability, T/C [11] [%] | viability, T/C [12] [%] | viability, T/C [13] [%] | viability, T/C [14] [%] | viability, T/C [15] [%] | other results
O=C(c1cc(Cc2n[nH]c(=O)c3ccccc23)ccc1F)N1CCN(C(=O)C2CC2)CC1 + Cc1ccccc1N=Nc1ccc(NC(=O)c2ccnn2C)c(C)c1 | > 10 | > 10 | > 10 | > 10 | > 10 | 98 | 105 | 101 | 103 | 87.6 | 75.5 | 99.4 | 99.8 | 91.7 | 92.1 | 89.8 | 68.5 | 94.4 | 100 | 95.5 | viability, T/C [16]: 90.6%; viability, T/C [17]: 78.7%; viability, T/C [18]: 72.3%; viability, T/C [19]: 84.5%; viability, T/C [20]: 79%; viability, T/C [21]: 87.3%; viability, T/C [22]: 84.5%; viability, T/C [23]: 74.4%; viability, T/C [24]: 65.2%; viability, T/C [25]: 84.6%; viability, T/C [26]: 83.4%; viability, T/C [27]: 81.2%; viability, T/C [28]: 85.1%; viability, T/C [29]: 72.4%; viability, T/C [30]: 65.9%
Nc1ccn(C2OC(CO)C(O)C2(F)F)c(=O)n1 (stereo not given) + CC(CO)NC(=O)c1cc(-c2ccc(Cl)cc2)nn(-c2cnn(C)c2)c1=O | < 0.0316 | < 0.0316 | < 0.0316 | < 0.0316 | 0.0386 | 36.8 | 24.1 | 18.3 | 17.9 | 15.3 | 12.3 | 34.3 | 27.3 | 21.7 | 18.6 | 16 | 11.6 | 39 | 30.7 | 20.2 | viability, T/C [16]: 19.9%; viability, T/C [17]: 17.6%; viability, T/C [18]: 12.9%; viability, T/C [19]: 43.2%; viability, T/C [20]: 38.6%; viability, T/C [21]: 19.3%; viability, T/C [22]: 19.8%; viability, T/C [23]: 18.9%; viability, T/C [24]: 11.8%; viability, T/C [25]: 51.3%; viability, T/C [26]: 43.1%; viability, T/C [27]: 24.9%; viability, T/C [28]: 21.4%; viability, T/C [29]: 19.1%; viability, T/C [30]: 14.2%
Nc1ccn(C2OC(CO)C(O)C2(F)F)c(=O)n1 (stereo not given) + Cc1ccccc1N=Nc1ccc(NC(=O)c2ccnn2C)c(C)c1 | 0.0371 | < 0.0316 | < 0.0316 | < 0.0316 | < 0.0316 | 53.1 | 32.3 | 15.5 | 14.1 | 10.4 | 8.56 | 47.2 | 24.7 | 15.4 | 12.3 | 10.3 | 8.15 | 43.7 | 34.1 | 16.8 | viability, T/C [16]: 13.2%; viability, T/C [17]: 9.31%; viability, T/C [18]: 7.14%; viability, T/C [19]: 46.6%; viability, T/C [20]: 32.8%; viability, T/C [21]: 15.7%; viability, T/C [22]: 12.6%; viability, T/C [23]: 10.9%; viability, T/C [24]: 7.52%; viability, T/C [25]: 44.9%; viability, T/C [26]: 34.8%; viability, T/C [27]: 19.2%; viability, T/C [28]: 14.3%; viability, T/C [29]: 13.1%; viability, T/C [30]: 8.08%

Now from value to compound, other results behind:

IC50 (second compound 0.1 µM) [µM] | IC50 (second compound 0.316 µM) [µM] | IC50 (second compound 1 µM) [µM] | IC50 (second compound 3.16 µM) [µM] | IC50 (second compound 10 µM) [µM] | SMILES | viability, T/C [1] [%] | viability, T/C [2] [%] | viability, T/C [3] [%] | viability, T/C [4] [%] | viability, T/C [5] [%] | viability, T/C [6] [%] | viability, T/C [7] [%] | viability, T/C [8] [%] | viability, T/C [9] [%] | viability, T/C [10] [%] | viability, T/C [11] [%] | viability, T/C [12] [%] | viability, T/C [13] [%] | viability, T/C [14] [%] | viability, T/C [15] [%] | other results
9.57 | > 10 | 8.76 | 6 | 5.68 | CC1(C)CCC(CN2CCN(c3ccc(C(=O)NS(=O)(=O)c4ccc(NCC5CCOCC5)c([N+](=O)[O-])c4)c(Oc4cnc5[nH]ccc5c4)c3)CC2)=C(c2ccc(Cl)cc2)C1 + Cc1ccccc1N=Nc1ccc(NC(=O)c2ccnn2C)c(C)c1 | 87.7 | 92.8 | 93.6 | 87.8 | 80.7 | 48.8 | 89.4 | 90.5 | 88 | 83.3 | 72 | 52 | 83.5 | 85.8 | 80.7 | viability, T/C [16]: 71.8%; viability, T/C [17]: 71.1%; viability, T/C [18]: 46.7%; viability, T/C [19]: 72.4%; viability, T/C [20]: 71.8%; viability, T/C [21]: 68.9%; viability, T/C [22]: 69%; viability, T/C [23]: 61.3%; viability, T/C [24]: 41%; viability, T/C [25]: 73.8%; viability, T/C [26]: 70.2%; viability, T/C [27]: 69.6%; viability, T/C [28]: 67.9%; viability, T/C [29]: 58%; viability, T/C [30]: 41.9%
> 10 | > 10 | > 10 | > 10 | < 0.0316 | COc1cc(Nc2ncc3c(n2)-c2ccc(Cl)cc2C(c2c(F)cccc2OC)=NC3)ccc1C(=O)O + Cc1cncc(-c2nc(NCCc3c[nH]c4ccccc34)c3ncn(C(C)C)c3n2)c1 | 116 | 130 | 149 | 91.1 | 127 | 108 | 91.2 | 137 | 104 | 87.1 | 93.4 | 65 | 88.9 | 127 | 98.2 | viability, T/C [16]: 107%; viability, T/C [17]: 76%; viability, T/C [18]: 80.4%; viability, T/C [19]: 97.5%; viability, T/C [20]: 131%; viability, T/C [21]: 121%; viability, T/C [22]: 96.2%; viability, T/C [23]: 82.7%; viability, T/C [24]: 84.5%; viability, T/C [25]: 17.1%; viability, T/C [26]: 14.8%; viability, T/C [27]: 18.8%; viability, T/C [28]: 15%; viability, T/C [29]: 19.1%; viability, T/C [30]: 25.6%
